US10201610B2, “Interference peptides and use thereof” (The University of Western Australia, priority 2014, dated 2019)
Ends that are not written are not given here.

Key:
[1] = tested on: SUM149PT cells overexpressing the EN1 cDNA (SUM149PT-EN1); assay: Cell Titer Glo cell viability assay in SUM149PT cells overexpressing the EN1 cDNA; assay type: cell-based, human; conditions: iPep624 72 hours
Experimental: In the neural system it has been proposed that EN1 protects neurons from mitochondrial complex I insults. Likewise, the inventors investigated whether EN1 could play a similar role in the basal-like breast cancer cell lines. The EN1 cDNA was overexpressed in SUM149PT cells using a lentiviral vector, and the transduced cells were treated with increasing concentrations of rotenone, a mitochondrial complex I toxin, and taxol, a […].
Plasmids expressing the EN1 cDNA (Genecopoeia, vector EX-T1021-Lv07) or EN1 shRNAs (Open Biosystems, pLKO-EN1) were transfected with Gagpol-, VSVG-, and RSV-REV-coding plasmids in HEK 293T cells using Lipofectamine and Plus Reagent cationic lipids (Invitrogen, Carlsbad, Calif.) and transduction of breast cells was performed as described in Beltran, A. S. et al. Breast Cancer Res 13, R94 (2011).
(§1) All peptides were synthetized at the UNC High-Throughput Peptide Synthesis and Array Facility at UNC. Taxol, Rotenone and Halofuginone (Sigma-Aldrich, St Louis, Mo.) were dissolved in DMSO. A total of […] or 1×10^3 breast cells for peptide and drug treatment respectively, were seeded in 96-well plates. Cells were exposed for 8 hours to the peptide and 48 to 72 hours for drug treatment. The cell viability after peptide/drug treatment was assayed with the Cell Titer Glo (CTG) assay (Promega, Madison, Wis., USA).

[2] = tested on: PBX family members (notably, PBX1); assay: Immunoprecipitation and western blotting of TFHDs from SUM149PT extracts; assay type: binding, human; conditions: versus control peptide
Text: (§2) To investigate the binding partners of the iPeps in cancer cells, the inventors carried out affinity capture immunoprecipitation experiments using the biotinylated active iPep624 as bait, and the iPep624ΔHEX as negative control. They used total protein extracts from SUM149PT cells to capture endogenous proteins able to bind these peptides in vitro. Elutes were loaded in a 1D-SDS PAGE gel to visualize the enrichment of individual proteins. […] In addition, overexpression of EN1 cDNA into two different breast cell lines confirmed the interaction of the full length EN1 with the endogenous EPRS inside the cells (FIG. 6c). To ascertain whether some downstream well-known effectors of EPRS were also differentially regulated by the iPeps, we performed real time PCR to detect mRNA levels of COLA1, COLA2, S1004A and DDIT3 (CHOP). […] COLA1 and COLA2 encode collagen proteins highly enriched by the amino acid proline and S1004A is a protein involved in metastasis and fibrosis. […] In contrast, the amino acid stress factor DDIT3 is stimulated upon EPRS inhibition. […]
(§3) The iPep624 and iPep624ΔHEX were coupled to a C-terminal biotin and immobilized in streptavidin-coated beads. […] Detection was performed with ECL Detection System (GE Healthcare) and quantitated using Image J v1.46 (ImageJ, NCBI).

SUM102 = assay: Cell Titer Glo cell viability assay, breast cancer cell line panel; assay type: cell-based; conditions: SUM102, 8 hours
Experimental: (§4) To test the specificity of the EN1-iPep in cell lines expressing EN1, the inventors delivered the iPeps into a panel of breast cancer cell lines expressing different amounts of EN1.
as §1

MDA-MB-231 = assay: as above; assay type: cell-based; conditions: MDA-MB-231, 8 hours
Experimental: as §4, §1

HUMEC = assay: as above; assay type: cell-based; conditions: 8 hours
Experimental: as §4, §1

SUM229 = assay: as above; assay type: cell-based; conditions: SUM229, 8 hours
Experimental: as §4, §1

MCF7 = assay: as above; assay type: cell-based; conditions: MCF7, 8 hours
Experimental: as §4, §1

SUM159PT = assay: as above; assay type: cell-based; conditions: 8 hours
Experimental: as §4, §1

PAX6 = biological target: T1, PAX6 (Homo sapiens, UniProt P26367); assay: Immunoprecipitation and western blotting of TFHDs from SUM149PT extracts; assay type: binding; conditions: versus control peptide
T1 construct: endogenous in cells; host or cells: SUM149PT total protein extract
Text: as §2, §3

T1 sequence (P26367 whole entry): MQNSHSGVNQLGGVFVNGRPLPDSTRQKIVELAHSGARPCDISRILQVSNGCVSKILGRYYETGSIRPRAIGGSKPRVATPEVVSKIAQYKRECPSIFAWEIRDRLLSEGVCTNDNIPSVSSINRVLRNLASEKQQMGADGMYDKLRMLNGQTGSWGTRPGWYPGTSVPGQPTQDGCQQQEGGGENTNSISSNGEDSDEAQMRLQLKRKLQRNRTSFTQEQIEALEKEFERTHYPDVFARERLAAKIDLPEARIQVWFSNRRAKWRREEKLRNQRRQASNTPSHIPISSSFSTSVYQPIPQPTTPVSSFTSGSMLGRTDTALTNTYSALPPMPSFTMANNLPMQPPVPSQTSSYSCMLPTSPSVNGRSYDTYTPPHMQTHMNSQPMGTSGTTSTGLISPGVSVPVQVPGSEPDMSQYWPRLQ

- interaction with PAX6 (PAX6): specific interactions
Sequence: KKKRKVTDSQQPLVWPAWVYCTRYSDRPS [iPep624]
- cell viability defect after ectopic transfection of the EN1 cDNA [1]: rescued
- interaction with PBX family members (notably, PBX1) [2]: specific interactions
- cell viability (SUM102): decreased cell viability
- cell viability (MDA-MB-231): no effect on cell viability
- cell viability (HUMEC): no effect on cell viability
- cell viability (SUM229): decreased cell viability
- cell viability (MCF7): no effect on cell viability
- cell viability (SUM159PT): decreased cell viability
